According to patent publication US7375058B2, “Herbicidal mixtures based on 3-phenyluracils” (priority 2002, dated 2008):
Structures can show the parent of a compound that is named as a salt.

Key:
[1] = tested on: ECHCG; assay: Greenhouse post-emergence herbicidal action against ECHCG; format: in vivo, Echinochloa crus-galli
Source text: (§1) For the post-emergence treatment, the test plants were first grown to a height of 3 to 20 cm, depending on the plant habit, and only then treated. Here, the herbicidal compositions were suspended or emulsified in water as distribution medium and sprayed using finely distributing nozzles
(§2) The respective components A and B and/or C were formulated as 10% by weight strength emulsion concentrate and introduced to the spray liquor with the amount of solvent system used for applying the active compound. In the examples, the solvent used was water.
(§3) The test period extended over 21 days. During this time, the plants were tended, and their response to the treatments with active compound was evaluated.
(§4) The evaluation for the damage caused by the chemical compositions was carried out using a scale from 0 to 100%, compared to the untreated control plants. Here, 0 means no damage and 100 means complete destruction of the plants.
(§5) In the examples below, the value E which is to be expected if the activity of the individual compounds is just additive was calculated using the method of S. R. Colby (1967) “Calculating synergistic and antagonistic responses of herbicide combinations”, Weeds 15, p. 22 ff. E=X+Y−([…]) where • X=effect in percent using active compound A at an application rate a; • Y=effect in percent using active compound B at an application rate b; • E=expected effect (in %) of A+B at application rates a+b.
(§6) If the observed effect is higher than the value E calculated according to Colby, a synergistic effect is present.

[2] = tested on: AVEFA; assay: Greenhouse post-emergence herbicidal action against AVEFA; format: in vivo, Avena fatua
Source text: as §1, §2, §3, §4, §5, §6

[3] = tested on: POLPE; assay: Greenhouse post-emergence herbicidal action against POLPE; format: in vivo, Polygonum persicaria; conditions: 21 days
Source text: as §1, §2, §3, §4, §5, §6

[4] = tested on: BIDPI; assay: Greenhouse post-emergence herbicidal action against BIDPI; format: in vivo, Bidens pilosa
Source text: as §1, §2, §3, §4, §5, §6

[5] = tested on: SETFA; assay: Greenhouse post-emergence herbicidal action against SETFA; format: in vivo, Setaria faberii
Source text: as §1, §2, §3, §4, §5, §6

[6] = tested on: GALAP; assay: Greenhouse post-emergence herbicidal action against GALAP; format: in vivo, Galium aparine
Source text: as §1, §2, §3, §4, §5, §6

[7] = tested on: ABUTH; assay: Greenhouse post-emergence herbicidal action against ABUTH; format: in vivo, Abutilon theophrasti
Source text: as §1, §2, §3, §4, §5, §6

[8] = tested on: BRAPL; assay: Greenhouse post-emergence herbicidal action against BRAPL; format: in vivo, Brachiaria plantaginea
Source text: as §1, §2, §3, §4, §5, §6

[9] = tested on: TRZAW; assay: Pre-emergence safener action (crop damage) in TRZAW; format: in vivo, Triticum aestivum (Winter wheat); conditions: 21 days
Experimental: as §4
(§7) In the examples below, the mixtures were applied by the pre-emergence method. To this end, the test plants were initially sown and covered with a thin layer of soil. Afterward (i.e. prior to the germination of the test plants), the mixtures according to the invention were sprayed onto the soil as an aqueous spray liquor at the stated application rate. As in the post-emergence method described above, the test period was 21 days. The damage was then evaluated as described above using a scale from 0 to 100% damage in comparison to untreated control plants (0% damage).
(§8) A safener action is present if the damage to the crop plant caused by using a mixture according to the invention which contains a safener C) is less than the damage caused when active compound A or active compounds A and B are used without safener.

[10] = tested on: TRFPR; assay: Pre-emergence herbicidal action against TRFPR; format: in vivo, Trifolium pratense; conditions: 21 days
Experimental: as §4, §7, §8

[11] = tested on: POAPR; assay: Pre-emergence herbicidal action against POAPR; format: in vivo, Poa pratensis; conditions: 21 days
Experimental: as §4, §7, §8

[12] = I.1 1.95 g/ha and/or b10.1 125 g/ha
[13] = I.1 3.91 g/ha and/or b10.1 250 g/ha
[14] = I.14 0.49 g/ha and/or b10.3 62.5 g/ha
[15] = I.14 0.98 g/ha and/or b10.3 125 g/ha
[16] = I.14 0.49 g/ha and/or b11.1 62.5 g/ha
[17] = I.14 0.98 g/ha and/or b11.1 125 g/ha
[18] = I.14 0.49 g/ha and/or b13.3 62.5 g/ha
[19] = I.14 0.98 g/ha and/or b13.3 125 g/ha
[20] = I.7 200 g/ha and/or c.1 200 g/ha
[21] = I.7 400 g/ha and/or c.1 400 g/ha
[22] = I.8 200 g/ha and/or c.1 200 g/ha
[23] = I.8 400 g/ha and/or c.1 400 g/ha

CS(=O)(=O)c1ccc(C(=O)C2C(=O)CCCC2=O)c(Cl)c1 [b5.2, sulcotrione, reference compound]
Herbicidal action against ECHCG found ([1]; 21 days, application rate g/ha: I.8 1.95, b5.2 31.25): 60%
Herbicidal action against ECHCG found ([1]; 21 days, application rate g/ha: I.8 3.91, b5.2 62.5): 75%

CC(C)N.O=C(O)CNCP(=O)(O)O [b6.1, glyphosate isopropylammonium salt, reference compound]
Herbicidal action against AVEFA found ([2]; 21 days, application rate g/ha: I.7 1.95, b6.1 125): 0%
Herbicidal action against AVEFA found ([2]; 21 days, application rate g/ha: I.7 3.91, b6.1 250): 0%

CP(=O)(O)CCC(N)C(=O)O (stereo not drawn) [b7.1, glufosinate ammonium salt, reference compound]
Herbicidal action against AVEFA found ([2]; 21 days, application rate g/ha: I.7 1.95, b7.1 250): 0%
Herbicidal action against AVEFA found ([2]; 21 days, application rate g/ha: I.7 3.91, b7.1 500): 20%
Herbicidal action against POLPE found ([3]; application rate g/ha: I.7 1.95, b7.1 250): 0%
Herbicidal action against POLPE found ([3]; application rate g/ha: I.7 3.91, b7.1 500): 30%

CCC(CC)Nc1c([N+](=O)[O-])cc(C)c(C)c1[N+](=O)[O-] [b9.1, pendimethalin, reference compound]
Herbicidal action against AVEFA found ([2]; 21 days, application rate g/ha: I.1 0.98, b9.1 125): 10%
Herbicidal action against AVEFA found ([2]; 21 days, application rate g/ha: I.1 1.95, b9.1 250): 20%

COC[C@H](C)N(C(=O)CCl)c1c(C)csc1C [b10.1, dimethenamid-P, reference compound]
Herbicidal action against BIDPI found [4, 12]: 25%
Herbicidal action against BIDPI found [4, 13]: 25%
Herbicidal action against AVEFA found [2, 12]: 30%
Herbicidal action against AVEFA found [2, 13]: 30%

CCOCN(C(=O)CCl)c1c(C)cccc1CC [b10.2, acetochlor, reference compound]
Herbicidal action against BIDPI found ([4]; 21 days, application rate g/ha: I.14 1.95, b10.2 250): 30%
Herbicidal action against BIDPI found ([4]; 21 days, application rate g/ha: I.14 3.91, b10.2 500): 70%

CCc1cccc(C)c1N(C(=O)CCl)[C@@H](C)COC [b10.3, S-metolachlor, reference compound]
Herbicidal action against SETFA found [5, 14]: 30%
Herbicidal action against SETFA found [5, 15]: 60%
Herbicidal action against GALAP found [6, 14]: 0%
Herbicidal action against GALAP found [6, 15]: 25%

CCC(C)(CC)c1cc(NC(=O)c2c(OC)cccc2OC)on1 [b11.1, isoxaben, reference compound]
Herbicidal action against SETFA found [5, 16]: 0%
Herbicidal action against SETFA found [5, 17]: 10%
Herbicidal action against GALAP found [6, 16]: 0%
Herbicidal action against GALAP found [6, 17]: 0%

COc1c(Cl)ccc(Cl)c1C(=O)O [b13.2, dicamba, reference compound]
Herbicidal action against ECHCG found ([1]; I.14 1.95 g/ha and/or b13.2 125 g/ha): 0%
Herbicidal action against ECHCG found ([1]; I.14 3.91 g/ha and/or b13.2 250 g/ha): 30%

CNC.O=C(O)COc1ccc(Cl)cc1Cl [b13.3, 2,4-D dimethylammonium salt, reference compound]
Herbicidal action against ABUTH found [7, 18]: 25%
Herbicidal action against ABUTH found [7, 19]: 65%
Herbicidal action against BRAPL found [8, 18]: 20%
Herbicidal action against BRAPL found [8, 19]: 50%

CCOC(=O)C1=NN(c2ccc(Cl)cc2Cl)C(C)(C(=O)OCC)C1 (stereo not drawn) [c.1, mefenpyr-diethyl, reference compound]
Damage to crop plant TRZAW [9, 20]: 0%
Damage to crop plant TRZAW [9, 21]: 0%
Damage to crop plant TRZAW [9, 22]: 0%
Damage to crop plant TRZAW [9, 23]: 0%
Herbicidal action against TRFPR [10, 20]: 5%
Herbicidal action against TRFPR [10, 21]: 5%
Herbicidal action against TRFPR [10, 22]: 5%
Herbicidal action against TRFPR [10, 23]: 5%
Herbicidal action against POAPR [11, 20]: 0%
Herbicidal action against POAPR [11, 21]: 0%
Herbicidal action against POAPR [11, 22]: 0%
Herbicidal action against POAPR [11, 23]: 0%
